Test results from patent US5672715A, “Herbicidal substituted 3-aryl-pyrazoles” (Monsanto Company, priority 1995, dated 1997).

Key:
Type in all cases: in vivo
Rape [1] = test: pre-emergence herbicide test; conditions: pre-emergence, 0.25 lb/A; read-out: % plant inhibition
Experimental: (§1) Topsoil was placed in an aluminum pan and compacted to a depth of 1.3 to 1.6 cm from the top of the pan. On the top of the soil was placed a predetermined number of seeds of each of several monocotyledonous and dicotyledonous annual plant species and/or vegetative propagules of various perennial plant species. The pan was then level filled with a cover layer of topsoil to which was added a known amount of active ingredient either prior to or after application of the cover layer. The active ingredient was dissolved or suspended in an organic solvent, e.g., acetone, or water as carrier for application to the cover layer. The pans were moved to a greenhouse bench where they were thereafter watered from below as needed to give adequate moisture for germination and growth. In some cases, an initial overhead irrigation of 1/4 inch of water was applied immediately after treatment.
(§2) Approximately 14 days after seeding and treating, the pans were observed and the results (% inhibition) were recorded.
(§3) The tables below summarize the results of the pre-emergence herbicidal activity tests of compounds of this invention tested with warm season plants (Tables 2a-2d) and cool season plants (Tables 3a and 3b). The herbicidal rating shown in these tables is the percent inhibition of each plant species. The plant species usually regarded as weeds are identified in the tables by single letter headings and crop species identified by two letter headings both headings being above the columns in accordance with the following legend: […]

Wheat [2] = test: pre-emergence herbicide test; conditions: Triticum aestivum, pre-emergence, 0.25 lb/A; read-out: % plant inhibition
Experimental: as §1, §2, §3

Bedstraw Catchweed [3] = test: pre-emergence herbicide test; conditions: Galium aparine, pre-emergence, 0.25 lb/A; read-out: % plant inhibition
Experimental: as §1, §2, §3

Green Foxtail [4] = test: pre-emergence herbicide test; conditions: Setaria viridis, pre-emergence; 0.25 lb/A; read-out: % plant inhibition
Experimental: as §1, §2, §3

Birdseye Speedwell [5] = test: pre-emergence herbicide test; conditions: pre-emergence, 0.25 lb/A; read-out: % plant inhibition
Experimental: as §1, §2, §3

Wild Oats [6] = test: pre-emergence herbicide test; conditions: Avena fatua, pre-emergence, 0.25 lb/A; read-out: % plant inhibition
Experimental: as §1, §2, §3

Blackgrass [7] = test: pre-emergence herbicide test; conditions: Alopecurus myosuroides, pre-emergence, 0.25 lb/A; read-out: % plant inhibition
Experimental: as §1, §2, §3

Common Chickweed [8] = test: pre-emergence herbicide test; conditions: pre-emergence, 0.25 lb/A; read-out: % plant inhibition
Experimental: as §1, §2, §3

Downy Brome [9] = test: pre-emergence herbicide test; conditions: Bromus tectorum, pre-emergence, 0.25 lb/A; read-out: % plant inhibition
Experimental: as §1, §2, §3

Rape [10] = test: post-emergence herbicide test; conditions: post-emergence, 0.25 lb/A; read-out: % plant inhibition
Text: (§4) Topsoil was placed in aluminum pans having holes in the bottom and compacted to a depth of 1.3 to 1.6 cm from the top of the pan. A predetermined number of seeds of each of several dicotyledonous and monocotyledonous annual plant species and/or vegetative propagules for the perennial plant species were placed on the soil and pressed into the soil surface. The seeds and/or vegetative propagules were covered with soil and leveled. The pans were then placed on a bench in the greenhouse and watered either from overheard irrigation or by subirrigation as needed. After the plants reach the desired age (two to three weeks), each pan, is removed individually to a spraying chamber and sprayed by means of an atomizer, operating at a spray pressure of 170.3 kPa […] at the application rates noted. In the spray solution was an amount of an emulsifying agent mixture to give a spray solution or suspension which contains about 0.4% by volume of the emulsifier. The spray solution or suspension contained a sufficient amount of the candidate chemical in order to give application rates of the active ingredient corresponding to those shown in Tables 4 and 5, while applying a total amount of solution or suspension equivalent to 1870 L/Ha (200 gallons/acre). […] The post-emergent herbicidal activity shown in these tables is the percent inhibition of each plant species. Testing with warm season and cool season plants is shown in tables 4a-4d and […], respectively.

Wheat [11] = test: post-emergence herbicide test; conditions: Triticum aestivum, post-emergence, 0.25 lb/A; read-out: % plant inhibition
Text: as §4

Cocklebur = test: post-emergence herbicide test; conditions: Xanthium strumarium, post-emergence, 0.25 lb/A; read-out: % plant inhibition
Text: as §4

Barnyardgrass = test: post-emergence herbicide test; conditions: Echinochloa crus-galli, post-emergence, 0.25 lb/A; read-out: % plant inhibition
Text: as §4

Velvetleaf = test: post-emergence herbicide test; conditions: Abutilon theophrasti, post-emergence, 0.25 lb/A; read-out: % plant inhibition
Text: as §4

Bedstraw Catchweed [12] = test: post-emergence herbicide test; conditions: Galium aparine, post-emergence, 0.25 lb/A; read-out: % plant inhibition
Text: as §4

Green Foxtail [13] = test: post-emergence herbicide test; conditions: Setaria viridis, post-emergence, 0.25 lb/A; read-out: % plant inhibition
Text: as §4

Soybean = test: post-emergence herbicide test; conditions: Glycine max, post-emergence, 0.25 lb/A; read-out: % plant inhibition
Text: as §4

Birdseye Speedwell [14] = test: post-emergence herbicide test; conditions: post-emergence, 0.25 lb/A; read-out: % plant inhibition
Text: as §4

Seedling Johnsongrass = test: post-emergence herbicide test; conditions: Sorghum halepense, post-emergence, 0.25 lb/A; read-out: % plant inhibition
Text: as §4

Wild Oats [15] = test: post-emergence herbicide test; conditions: Avena fatua, post-emergence, 0.25 lb/A; read-out: % plant inhibition
Text: as §4

Giant Foxtail = test: post-emergence herbicide test; conditions: Setaria faberi, post-emergence, 0.25 lb/A; read-out: % plant inhibition
Text: as §4

Morning Glory = test: post-emergence herbicide test; conditions: Ipomoea, post-emergence, 0.25 lb/A; read-out: % plant inhibition
Text: as §4

Blackgrass [16] = test: post-emergence herbicide test; conditions: Alopecurus myosuroides, post-emergence, 0.25 lb/A; read-out: % plant inhibition
Text: as §4

Corn = test: post-emergence herbicide test; conditions: Zea mays, post-emergence, 0.25 lb/A; read-out: % plant inhibition
Text: as §4

Common Chickweed [17] = test: post-emergence herbicide test; conditions: post-emergence, 0.25 lb/A; read-out: % plant inhibition
Text: as §4

Downy Brome [18] = test: post-emergence herbicide test; conditions: Bromus tectorum, post-emergence, 0.25 lb/A; read-out: % plant inhibition
Text: as §4

Structure (SMILES)	inhibition at 280.212 g/ha (Rape [1]) [%]	inhibition at 280.212 g/ha (Wheat [2]) [%]	inhibition at 280.212 g/ha (Bedstraw Catchweed [3]) [%]	inhibition at 280.212 g/ha (Green Foxtail [4]) [%]	inhibition at 280.212 g/ha (Birdseye Speedwell [5]) [%]	inhibition at 280.212 g/ha (Wild Oats [6]) [%]	inhibition at 280.212 g/ha (Blackgrass [7]) [%]	inhibition at 280.212 g/ha (Common Chickweed [8]) [%]	inhibition at 280.212 g/ha (Downy Brome [9]) [%]	inhibition at 280.212 g/ha (Rape [10]) [%]	inhibition at 280.212 g/ha (Wheat [11]) [%]	inhibition at 280.212 g/ha (Cocklebur) [%]	inhibition at 280.212 g/ha (Barnyardgrass) [%]	inhibition at 280.212 g/ha (Velvetleaf) [%]	inhibition at 280.212 g/ha (Bedstraw Catchweed [12]) [%]	inhibition at 280.212 g/ha (Green Foxtail [13]) [%]	inhibition at 280.212 g/ha (Soybean) [%]	inhibition at 280.212 g/ha (Birdseye Speedwell [14]) [%]	inhibition at 280.212 g/ha (Seedling Johnsongrass) [%]	inhibition at 280.212 g/ha (Wild Oats [15]) [%]	further results
Cc1c(-c2cc(CBr)c(Cl)cc2F)nn(C)c1C(F)(F)F [Compound 10, 3-[5-(Bromomethyl)-4-chloro-2-fluorophenyl]-1,4-dimethyl-5-(trifluoromethyl)-1H-pyrazole]	50	0	30	98	50	5	20	5	25	35	10	55	5	90	25	50	8	90	15	10	inhibition at 280.212 g/ha (Giant Foxtail): 15%; inhibition at 280.212 g/ha (Morning Glory): 35%; inhibition at 280.212 g/ha (Blackgrass [16]): 20%; inhibition at 280.212 g/ha (Corn): 3%; inhibition at 280.212 g/ha (Common Chickweed [17]): 15%; inhibition at 280.212 g/ha (Downy Brome [18]): 25%
COCc1cc(-c2nn(C)c(C(F)(F)F)c2C)c(F)cc1Cl [Compound 11]	15	0	75	100	95	20	60	25	10	5	6	15	0	50	50	25	20	60	5	5	inhibition at 280.212 g/ha (Giant Foxtail): 0%; inhibition at 280.212 g/ha (Morning Glory): 25%; inhibition at 280.212 g/ha (Blackgrass [16]): 15%; inhibition at 280.212 g/ha (Corn): 15%; inhibition at 280.212 g/ha (Common Chickweed [17]): 10%; inhibition at 280.212 g/ha (Downy Brome [18]): 10%
